Assay results taken from US20060140869A1, “Polymeric contrast agents for use in medical imaging” (priority 2004, published 2006).

Tested on: rat mammary adenocarcinoma (Mat B) tumor
Assay: MR imaging of subcutaneous Mat B tumors in rats after intravenous injection of polymeric contrast agent
Format: in vivo
Conditions: Mat B tumor in Fisher female rats
Protocol: Fisher female rats were implanted subcutaneously with rat mammary adenocarcinoma cells (ATTC Mat B cells) that were grown to a suitable density in tissue culture. The implanted cells grew into tumors of 1-2 cm diameter in about 10 to 14 days and continued to grow to larger sizes when experiments extended beyond that time frame.
The reptating polymer that was used (Polylysine-Gd-DTPA) was synthesized using a synthesis method described above with polymer length of 780 monomer units, molecular weight of 460 kDaltons, and about 98% of lysines acylated with DTPA (i.e. about 764 Gd ions). The animals were injected intravenously at a dose of 0.025 mmoles Gd/kG. FIG. 1 are a series of images taken wherein the imaging was done pre-injection, one minute after injection, 60 minutes after injection, and 24 hours after injection with a T1 weighted spin echo pulse sequence (TR=250 ms, TE=9 ms), 12 centimeter FOV, 1 millimeter slices. Receive coil was a solenoid coil of about 5 centimeters diameter. Imaging was done on a Signa 1.5 Tesla scanner.
FIG. 2 is a graph of the slopes in signal change for all the pixels in the tumor and the highest 10% of pixels in the tumor. The signals are heterogenous in space due to angiogenesis being most prevalent in the outer rim of the tumor. Thus in order to capture the regions of interest with high permeability, the average signal associated with the pixels of the entire tumor in the image slice is plotted in addition to the average signal associated with the highest 10% of the pixels. The highest 10% of the pixels represents the hypermeable regions associated with angiogenic processes. The use of all pixels represents the average values for the entire tumor which includes then the center of tumors which are often necrotic and unreactive in terms of blood perfusion. These regions are not biologically relevant and thus the total average values have more “noise” that are associated with the necrotic processes which are not of direct interest in the present case. […]

[1] = linear regression fit, intravenous injection, T1 weighted spin echo, 1.5 Tesla

## Polylysine-Gd-DTPA [Example 1]
0.025 mmoles Gd/kG intravenously
  magnetic resonance signal change compared with the polymer of Example 2: enhanced magnetic resonance signals

## Polylysine-Gd-DTPA [Example 2]
[1]
  slope of signal change, all the pixels in the tumor: 7 % per hour
  slope of signal change, highest 10% of the pixels in the tumor: 14 % per hour
